Source: US4055715A, “Method of producing 1-N-[L-(-)-α-hydroxy-γ-aminobutyryl]XK-62-2” (Abbott Laboratories, priority 1974, dated 1977)
≈ marks a conversion by molar mass, not a printed value. Read-outs that look alike come from different tables or passages of the source.

How the values were obtained:
[1] = tested on: Bacillus subtilis No. 10707; experiment: Agar-dilution MIC, pH 8.0 (Table 1); type: cell-based
[2] = tested on: Staphylococcus aureus ATCC 6538P; experiment: Agar-dilution MIC, pH 8.0 (Table 1); type: cell-based; details: ATCC6538P
[3] = tested on: Escherichia coli T-5; experiment: Agar dilution MIC, pH 7.2 (Table 2); type: cell-based
[4] = tested on: Salmonella typhosa ATCC 9992; experiment: Agar-dilution MIC, pH 8.0 (Table 1); type: cell-based; details: Salmonella enterica, pH 8, read-out: Minimum Inhibitory Concentration
[5] = tested on: Pseudomonas aeruginosa BMH 1; experiment: Agar dilution MIC, pH 7.2 (Table 2); type: cell-based
[6] = tested on: Pseudomonas aeruginosa BMH 1; experiment: Agar-dilution MIC, pH 8.0 (Table 1); type: cell-based
[7] = tested on: Pseudomonas aeruginosa KY 8516; experiment: Agar dilution MIC, pH 7.2 (Table 2); type: cell-based
[8] = tested on: Pseudomonas aeruginosa KY 8511; experiment: Agar dilution MIC, pH 7.2 (Table 2); type: cell-based
[9] = tested on: Krebsiella pneumoniae ATCC 10031; experiment: Agar-dilution MIC, pH 8.0 (Table 1); type: cell-based; details: Klebsiella pneumoniae
[10] = tested on: Pseudomonas aeruginosa KY 8512; experiment: Agar dilution MIC, pH 7.2 (Table 2); type: cell-based
[11] = tested on: Shigella sonnei ATCC 9290; experiment: microbe, parasite or virus in culture; type: cell-based
[12] = tested on: Staphylococcus aureus Smith; experiment: Agar dilution MIC, pH 7.2 (Table 2); type: cell-based; details: pH 7.2, read-out: Minimum Inhibitory Concentration
[13] = tested on: Proteus mirabilis 1287; experiment: Agar dilution MIC, pH 7.2 (Table 2); type: cell-based
[14] = tested on: Escherichia coli KY 8321; experiment: Agar dilution MIC, pH 7.2 (Table 2); type: cell-based
[15] = tested on: Sarcina lutea ATCC 9341; experiment: Agar dilution MIC, pH 7.2 (Table 2); type: cell-based; details: Micrococcus luteus
[16] = tested on: Bacillus subtilis ATCC 6633; experiment: Agar dilution MIC, pH 7.2 (Table 2); type: cell-based
[17] = tested on: Escherichia coli ATCC 26; experiment: Agar-dilution MIC, pH 8.0 (Table 1); type: cell-based
[18] = tested on: Proteus vulgaris 6897; experiment: Agar dilution MIC, pH 7.2 (Table 2); type: cell-based
[19] = tested on: Staphylococcus aureus 209 P; experiment: Agar dilution MIC, pH 7.2 (Table 2); type: cell-based; details: pH 7.2, read-out: Minimum Inhibitory Concentration
[20] = tested on: Escherichia coli T-2; experiment: Agar dilution MIC, pH 7.2 (Table 2); type: cell-based
[21] = tested on: Providencia sp. 164; experiment: Agar dilution MIC, pH 7.2 (Table 2); type: cell-based; details: Providencia sp. 164, produces gentamicin acetyltransferase Type II, read-out: Minimum Inhibitory Concentration
[22] = tested on: Escherichia coli KY 8327; experiment: Agar dilution MIC, pH 7.2 (Table 2); type: cell-based; details: KY8327, E. coli KY 8327, read-out: Minimum Inhibitory Concentration
[23] = tested on: Klebsiella pneumoniae No. 8045; experiment: Agar dilution MIC, pH 7.2 (Table 2); type: cell-based
[24] = tested on: Proteus morganii KY 4298; experiment: Agar dilution MIC, pH 7.2 (Table 2); type: cell-based; details: Morganella morganii
[25] = tested on: Pseudomonas aeruginosa KY 8510; experiment: Agar dilution MIC, pH 7.2 (Table 2); type: cell-based
[26] = tested on: Escherichia coli KY 8348; experiment: Agar-dilution MIC, pH 8.0 (Table 1); type: cell-based; details: Escherichia coli, KY8348; E. coli KY 8348, produces gentamicin acetyltransferase Type I; agar-dilution, pH 8.0; read-out: Minimum Inhibitory Concentration
Text: (§1) The former bacterium inactivates kanamycins and gentamicins by adenylation, and the latter inactivates gentamicins by acetylation.

[27] = tested on: Escherichia coli KY 8327; experiment: Agar-dilution MIC, pH 8.0 (Table 1); type: cell-based; details: Escherichia coli, KY8327; E. coli KY 8327, produces gentamicin adenyltransferase; agar-dilution, pH 8.0; read-out: Minimum Inhibitory Concentration
Text: as §1

[28] = tested on: Escherichia coli KY 8349; experiment: Agar dilution MIC, pH 7.2 (Table 2); type: cell-based; details: KY8349, E. coli KY 8349, produces neomycin-kanamycin phosphotransferase Type I, read-out: Minimum Inhibitory Concentration
[29] = tested on: Proteus vulgaris ATCC 6897; experiment: microbe, parasite or virus in culture; type: cell-based
[30] = Acute toxicity in mice, intravenous injection; details: mouse, in vivo
[31] = tested on: Escherichia coli KY 8348; experiment: Agar dilution MIC, pH 7.2 (Table 2); type: cell-based; details: KY8348, E. coli KY 8348, produces gentamicin acetyltransferase Type I, read-out: Minimum Inhibitory Concentration
[32] = tested on: Proteus rettgeri KY 4288; experiment: Agar dilution MIC, pH 7.2 (Table 2); type: cell-based; details: Providencia rettgeri, KY4288, P. rettgeri KY 4288, read-out: Minimum Inhibitory Concentration

SMILES: NC[C@H]1O[C@H](O[C@H]2[C@H](O)[C@@H](O[C@H]3O[C@H](CO)[C@@H](O)[C@H](N)[C@H]3O)[C@H](N)C[C@@H]2N)[C@H](O)[C@@H](O)[C@@H]1O [Kanamycin A, kanamycin A]
- MIC ([1]; NO.10707, pH 8, read-out: Minimum Inhibitory Concentration): 0.021 µg/mL (≈ 0.0433 µM)
- MIC ([2]; pH 8, read-out: Minimum Inhibitory Concentration): 0.021 µg/mL (≈ 0.0433 µM)
- MIC ([3]; T5, pH 7.2, read-out: Minimum Inhibitory Concentration): 1.56 µg/mL (≈ 3.22 µM)
- MIC [4]: 0.088 µg/mL (≈ 0.182 µM)
- MIC ([5]; BMH1, pH 7.2, read-out: Minimum Inhibitory Concentration): 12.5 µg/mL (≈ 25.8 µM)
- MIC ([6]; BMH1, pH 8, read-out: Minimum Inhibitory Concentration): 5.2 µg/mL (≈ 10.7 µM)
- MIC ([7]; KY8516, pH 7.2, read-out: Minimum Inhibitory Concentration): > 100 µg/mL
- MIC ([8]; KY8511, pH 7.2, read-out: Minimum Inhibitory Concentration): 100 µg/mL (≈ 206 µM)
- MIC ([9]; ATCC10031, pH 8, read-out: Minimum Inhibitory Concentration): 0.042 µg/mL (≈ 0.0867 µM)
- MIC ([10]; KY8512, pH 7.2, read-out: Minimum Inhibitory Concentration): 12.5 µg/mL (≈ 25.8 µM)
- MIC ([11]; ATCC9290, pH 8, read-out: Minimum Inhibitory Concentration): 0.16 µg/mL (≈ 0.33 µM)
- MIC [12]: 0.2 µg/mL (≈ 0.413 µM)
- MIC ([13]; Proteus mirabilis, 1287, pH 7.2, read-out: Minimum Inhibitory Concentration): 6.25 µg/mL (≈ 12.9 µM)
- MIC ([14]; KY8321, pH 7.2, read-out: Minimum Inhibitory Concentration): 100 µg/mL (≈ 206 µM)
- MIC ([15]; ATCC9341, pH 7.2, read-out: Minimum Inhibitory Concentration): 6.25 µg/mL (≈ 12.9 µM)
- MIC ([16]; ATCC6633, pH 7.2, read-out: Minimum Inhibitory Concentration): 0.2 µg/mL (≈ 0.413 µM)
- MIC ([17]; ATCC26, pH 8, read-out: Minimum Inhibitory Concentration): 0.16 µg/mL (≈ 0.33 µM)
- MIC ([18]; Proteus vulgaris, 6897, pH 7.2, read-out: Minimum Inhibitory Concentration): 3.12 µg/mL (≈ 6.44 µM)
- MIC ([19]; 209P): 0.2 µg/mL (≈ 0.413 µM)
- MIC ([20]; T2, pH 7.2, read-out: Minimum Inhibitory Concentration): 1.56 µg/mL (≈ 3.22 µM)
- MIC [21]: > 100 µg/mL
- MIC [22]: 50 µg/mL (≈ 103 µM)
- MIC ([23]; NO.8045, pH 7.2, read-out: Minimum Inhibitory Concentration): 0.4 µg/mL (≈ 0.826 µM)
- MIC ([24]; KY4298, pH 7.2, read-out: Minimum Inhibitory Concentration): 1.56 µg/mL (≈ 3.22 µM)
- MIC ([25]; KY8510, pH 7.2, read-out: Minimum Inhibitory Concentration): 100 µg/mL (≈ 206 µM)
- MIC [26]: 0.041 µg/mL (≈ 0.0846 µM)
- MIC [27]: 1.04 µg/mL (≈ 2.15 µM)
- MIC [28]: > 100 µg/mL
- MIC ([29]; ATCC6897, pH 8, read-out: Minimum Inhibitory Concentration): 0.16 µg/mL (≈ 0.33 µM)

SMILES: CNC[C@@H]1CC[C@@H](N)[C@@H](O[C@H]2[C@H](O)[C@@H](O[C@H]3OC[C@](C)(O)[C@H](NC)[C@H]3O)[C@H](N)C[C@@H]2N)O1 [XK-62-2]
- MIC ([1]; B. subtilis No. 10707, agar-dilution, pH 8.0, read-out: Minimum Inhibitory Concentration): 0.044 µg/mL (≈ 0.0949 µM)
- MIC ([2]; S. aureus ATCC 6538P, agar-dilution, pH 8.0, read-out: Minimum Inhibitory Concentration): 0.088 µg/mL (≈ 0.19 µM)
- MIC ([3]; T5, E. coli T-5, agar dilution, pH 7.2, read-out: Minimum Inhibitory Concentration): 0.4 µg/mL (≈ 0.863 µM)
- MIC [4]: 0.008 µg/mL (≈ 0.0173 µM)
- MIC ([5]; BMH1, P. aeruginosa BMH 1, agar dilution, pH 7.2, read-out: Minimum Inhibitory Concentration): 0.78 µg/mL (≈ 1.68 µM)
- LD50 [30]: 93 mg/kg
- MIC ([6]; BMH1, P. aeruginosa BMH 1, agar-dilution, pH 8.0, read-out: Minimum Inhibitory Concentration): 0.52 µg/mL (≈ 1.12 µM)
- MIC ([7]; KY8516, P. aeruginosa KY 8516, probably produces kanamycin acetyltransferase, agar dilution, pH 7.2, read-out: Minimum Inhibitory Concentration): 3.12 µg/mL (≈ 6.73 µM)
- MIC ([8]; KY8511, P. aeruginosa KY 8511, produces gentamicin acetyltransferase Type I and neomycin-kanamycin phosphotransferase Type I, agar dilution, pH 7.2, read-out: Minimum Inhibitory Concentration): 100 µg/mL (≈ 216 µM)
- MIC ([9]; ATCC10031, K. pneumoniae ATCC 10031, agar-dilution, pH 8.0, read-out: Minimum Inhibitory Concentration): 0.004 µg/mL (≈ 0.00863 µM)
- MIC ([10]; KY8512, P. aeruginosa KY 8512, produces neomycin-kanamycin phosphotransferase Type I and II and streptomycin phosphotransferase, agar dilution, pH 7.2, read-out: Minimum Inhibitory Concentration): 0.78 µg/mL (≈ 1.68 µM)
- MIC ([11]; ATCC9290, S. sonnei ATCC 9290, agar-dilution, pH 8.0, read-out: Minimum Inhibitory Concentration): 0.033 µg/mL (≈ 0.0712 µM)
- MIC ([12]; S. aureus Smith, agar dilution): < 0.05 µg/mL
- MIC ([13]; Proteus mirabilis, P. mirabilis 1287, agar dilution, pH 7.2, read-out: Minimum Inhibitory Concentration): 0.78 µg/mL (≈ 1.68 µM)
- MIC ([14]; KY8321, E. coli KY 8321, produces gentamicin adenyltransferase and neomycin-kanamycin phosphotransferase Type II, agar dilution, pH 7.2, read-out: Minimum Inhibitory Concentration): 3.12 µg/mL (≈ 6.73 µM)
- MIC ([15]; ATCC9341, Sarcina lutea ATCC 9341, agar dilution, pH 7.2, read-out: Minimum Inhibitory Concentration): 0.4 µg/mL (≈ 0.863 µM)
- MIC ([16]; ATCC6633, B. subtilis ATCC 6633, agar dilution, pH 7.2, read-out: Minimum Inhibitory Concentration): < 0.05 µg/mL
- MIC [31]: 12.5 µg/mL (≈ 27 µM)
- MIC ([17]; ATCC26, E. coli ATCC 26, agar-dilution, pH 8.0, read-out: Minimum Inhibitory Concentration): 0.016 µg/mL (≈ 0.0345 µM)
- MIC ([18]; Proteus vulgaris, P. vulgaris 6897, agar dilution, pH 7.2, read-out: Minimum Inhibitory Concentration): 0.78 µg/mL (≈ 1.68 µM)
- MIC ([19]; S. aureus 209 P, agar dilution): 0.1 µg/mL (≈ 0.216 µM)
- MIC [32]: 0.4 µg/mL (≈ 0.863 µM)
- MIC ([20]; T2, E. coli T-2, agar dilution, pH 7.2, read-out: Minimum Inhibitory Concentration): 0.4 µg/mL (≈ 0.863 µM)
- MIC [21]: 100 µg/mL (≈ 216 µM)
- MIC [22]: 12.5 µg/mL (≈ 27 µM)
- MIC ([23]; K. pneumoniae No. 8045, agar dilution, pH 7.2, read-out: Minimum Inhibitory Concentration): 0.1 µg/mL (≈ 0.216 µM)
- MIC ([24]; KY4298, P. morganii KY 4298, agar dilution, pH 7.2, read-out: Minimum Inhibitory Concentration): 0.4 µg/mL (≈ 0.863 µM)
- MIC ([25]; KY8510, P. aeruginosa KY 8510, produces kanamycin acetyltransferase, agar dilution, pH 7.2, read-out: Minimum Inhibitory Concentration): 1.56 µg/mL (≈ 3.37 µM)
- MIC [26]: 1.04 µg/mL (≈ 2.24 µM)
- MIC [27]: 1.04 µg/mL (≈ 2.24 µM)
- MIC [28]: 0.4 µg/mL (≈ 0.863 µM)
- MIC ([29]; ATCC6897, P. vulgaris ATCC 6897, agar-dilution, pH 8.0, read-out: Minimum Inhibitory Concentration): 0.033 µg/mL (≈ 0.0712 µM)
